ChEMBL document CHEMBL1201862, “PubChem BioAssay data set” (2004)
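1) Cells in 96-well plates. 2) Compound, 48 h, 5 concentrations. 3) Linear interpolation between surrounding doses. 4) Unreached endpoint = highest concentration. Here, GI50 denotes the concentration required for 50% inhibition of growth.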 The source made the active and inactive calls. No stated cut-off is given here; in the data, active = GI50 up to about 1.1 µM and inactive = higher.

Key:
Test in all cases: NCI anticancer screen, dose series, 48 h
MDA-N = test system: MDA-N
OVCAR-3 = test system: OVCAR-3
SR = test system: SR
HL-60 = test system: HL-60
KM12 = test system: KM12
HOP-62 = test system: HOP-62
NCI/ADR-RES = test system: NCI/ADR-RES
786-0 = test system: 786-0
SK-MEL-2 = test system: SK-MEL-2
HCT-15 = test system: HCT-15
MDA-MB-231 = test system: MDA-MB-231
MOLT-4 = test system: MOLT-4
OVCAR-8 = test system: OVCAR-8
NCI-H226 = test system: NCI-H226
NCI-H460 = test system: NCI-H460
ACHN = test system: ACHN
UO-31 = test system: UO-31
K562 = test system: K562

Structure (SMILES)	GI50 (MDA-N)	GI50 (OVCAR-3)	GI50 (SR)	GI50 (HL-60)	GI50 (KM12)	GI50 (HOP-62)	GI50 (NCI/ADR-RES)	GI50 (786-0)	GI50 (SK-MEL-2)	GI50 (HCT-15) [µM]	GI50 (MDA-MB-231)	GI50 (MOLT-4)	GI50 (OVCAR-8)	GI50 (NCI-H226)	GI50 (NCI-H460)	GI50 (ACHN)	GI50 (UO-31)	GI50 (K562)
CCCC(=O)NC1CCc2cc(OC)c(OC)c(OC)c2-c2ccc(OC)c(=O)cc21 (centres undefined)	0.000335 µM (active)	0.000384 µM (active)	0.114 µM (active)	0.000321 µM (active)	0.000449 µM (active)	0.000679 µM (active)	0.118 µM (active)	0.000652 µM (active)	0.01 µM (active)	0.00637	0.0004 µM (active)	0.000493 µM (active)	0.00252 µM (active)	0.000771 µM (active)	0.000644 µM (active)	0.019 µM (active)	0.0813 µM (active)	0.00041 µM (active)
O=C(CC(O)(C(F)(F)F)C(F)(F)F)C(CCCl)C(O)(C(F)(F)F)C(F)(F)F (centres undefined)	> 100 µM (inactive)	11.5 µM (inactive)	27.3 µM (inactive)	16.6 µM (inactive)	42.3 µM (inactive)	33.3 µM (inactive)	9.89 µM (inactive)	32.7 µM (inactive)	36.2 µM (inactive)	34.3	65 µM (inactive)	71.9 µM (inactive)	27.9 µM (inactive)	23.5 µM (inactive)	15 µM (inactive)	30.5 µM (inactive)	28.2 µM (inactive)	39.7 µM (inactive)
N#Cc1c2c(c(Nc3ccc(F)cc3)n3c1nc1ccccc13)CCC2	3.47 µM (inactive)	7.89 µM (inactive)	10.2 µM (inactive)	3.96 µM (inactive)	6.55 µM (inactive)	3.03 µM (inactive)	5.27 µM (inactive)	1.78 µM (inactive)	14.3 µM (inactive)	3.99	3.61 µM (inactive)	7.73 µM (inactive)	2.36 µM (inactive)	6.81 µM (inactive)	7.21 µM (inactive)	2.29 µM (inactive)	2.45 µM (inactive)	9.44 µM (inactive)
COc1ccc(/C=C/C(=O)Oc2cc(O)cc(O)c2)cc1	58.5 µM (inactive)	18 µM (inactive)	25.1 µM (inactive)	22 µM (inactive)	14.2 µM (inactive)	17.3 µM (inactive)	34.4 µM (inactive)	56.9 µM (inactive)	> 100 µM (inactive)	16.9	35.7 µM (inactive)	11.3 µM (inactive)	28.2 µM (inactive)	> 100 µM (inactive)	> 100 µM (inactive)	87.5 µM (inactive)	37.6 µM (inactive)	22.5 µM (inactive)
Cc1cn2c(C)csc2c1P(=O)(OC(C)C)OC(C)C	> 100 µM (inactive)	> 100 µM (inactive)	> 100 µM (inactive)	> 100 µM (inactive)	> 100 µM (inactive)	> 100 µM (inactive)	> 100 µM (inactive)	> 100 µM (inactive)	> 100 µM (inactive)	> 100	31.3 µM (inactive)	> 100 µM (inactive)	> 100 µM (inactive)	–	> 100 µM (inactive)	> 100 µM (inactive)	> 100 µM (inactive)	> 100 µM (inactive)
O=C1NC(N2CCOCC2)=N/C1=C\c1ccc(O)cc1	> 100 µM (inactive)	> 100 µM (inactive)	> 100 µM (inactive)	> 100 µM (inactive)	> 100 µM (inactive)	> 100 µM (inactive)	> 100 µM (inactive)	> 100 µM (inactive)	> 100 µM (inactive)	> 100	> 100 µM (inactive)	> 100 µM (inactive)	> 100 µM (inactive)	> 100 µM (inactive)	–	> 100 µM (inactive)	> 100 µM (inactive)	–
NNC(=O)c1cc([N+](=O)[O-])ccc1NC(=O)C12CC3CC(CC(C3)C1)C2	21 µM (inactive)	3.15 µM (inactive)	3.43 µM (inactive)	3.09 µM (inactive)	20.1 µM (inactive)	16.3 µM (inactive)	15.9 µM (inactive)	11.7 µM (inactive)	–	0.635	5.01 µM (inactive)	3.32 µM (inactive)	14.9 µM (inactive)	4.62 µM (inactive)	18.1 µM (inactive)	10 µM (inactive)	7.98 µM (inactive)	7.48 µM (inactive)
O=c1[nH]c(=O)n(COCc2ccccc2)c2ccccc12	83 µM (inactive)	87.3 µM (inactive)	37 µM (inactive)	19.9 µM (inactive)	59.8 µM (inactive)	–	20.5 µM (inactive)	> 100 µM (inactive)	> 100 µM (inactive)	14	49.2 µM (inactive)	44.4 µM (inactive)	40.9 µM (inactive)	47.8 µM (inactive)	40.9 µM (inactive)	32.1 µM (inactive)	29.1 µM (inactive)	45.6 µM (inactive)
COc1cc(-c2oc(/C=N/c3ccccc3)c([N+](=O)[O-])c2-c2ccc(O)c(OC)c2)ccc1O	31 µM (inactive)	35.4 µM (inactive)	2.86 µM (inactive)	0.412 µM (active)	21.7 µM (inactive)	33.8 µM (inactive)	22.8 µM (inactive)	20.6 µM (inactive)	32.9 µM (inactive)	14.4	27.5 µM (inactive)	12.2 µM (inactive)	17.3 µM (inactive)	26.9 µM (inactive)	16.1 µM (inactive)	16.1 µM (inactive)	15.1 µM (inactive)	36.1 µM (inactive)
O=C(O)C1C(=O)Oc2c(cccc2[N+](=O)[O-])C1O (centres undefined)	> 100 µM (inactive)	> 100 µM (inactive)	> 100 µM (inactive)	> 100 µM (inactive)	–	> 100 µM (inactive)	> 100 µM (inactive)	> 100 µM (inactive)	> 100 µM (inactive)	> 100	> 100 µM (inactive)	> 100 µM (inactive)	> 100 µM (inactive)	> 100 µM (inactive)	> 100 µM (inactive)	> 100 µM (inactive)	–	> 100 µM (inactive)
Cc1ccc(C)c(COCCOCn2cc(Br)c(N)nc2=O)c1	> 100 µM (inactive)	> 100 µM (inactive)	> 100 µM (inactive)	14 µM (inactive)	> 100 µM (inactive)	57.3 µM (inactive)	> 100 µM (inactive)	> 100 µM (inactive)	> 100 µM (inactive)	> 100	> 100 µM (inactive)	> 100 µM (inactive)	> 100 µM (inactive)	> 100 µM (inactive)	> 100 µM (inactive)	> 100 µM (inactive)	> 100 µM (inactive)	> 100 µM (inactive)
N#CC1CNC(N)NC1N (centres undefined)	> 100 µM (inactive)	> 100 µM (inactive)	34 µM (inactive)	> 100 µM (inactive)	> 100 µM (inactive)	> 100 µM (inactive)	> 100 µM (inactive)	> 100 µM (inactive)	> 100 µM (inactive)	> 100	> 100 µM (inactive)	–	> 100 µM (inactive)	> 100 µM (inactive)	> 100 µM (inactive)	> 100 µM (inactive)	–	64.1 µM (inactive)
CC(O)C1(CNc2cc(Cl)nc(N)n2)CC(CCc2ccccc2)C1 (centres undefined)	12.9 µM (inactive)	16.1 µM (inactive)	6.15 µM (inactive)	14.1 µM (inactive)	14.5 µM (inactive)	14.1 µM (inactive)	4.1 µM (inactive)	18.2 µM (inactive)	17.2 µM (inactive)	11.6	10.7 µM (inactive)	11.6 µM (inactive)	14.5 µM (inactive)	14.7 µM (inactive)	14 µM (inactive)	9.73 µM (inactive)	12.1 µM (inactive)	6.78 µM (inactive)
CC(Br)C(=O)Nc1ccc(C(=O)O)c(O)c1 (centres undefined)	34.6 µM (inactive)	29.2 µM (inactive)	32.9 µM (inactive)	26.6 µM (inactive)	70.8 µM (inactive)	34.8 µM (inactive)	49.5 µM (inactive)	37.6 µM (inactive)	32.4 µM (inactive)	> 100	68.2 µM (inactive)	36.1 µM (inactive)	52.8 µM (inactive)	93.5 µM (inactive)	> 100 µM (inactive)	> 100 µM (inactive)	> 100 µM (inactive)	49.8 µM (inactive)
O=C1/C(=C/c2ccc(O)c(O)c2)CC/C1=C\c1ccc(O)c(O)c1	4.61 µM (inactive)	5.09 µM (inactive)	2.3 µM (inactive)	3.39 µM (inactive)	9.79 µM (inactive)	7.11 µM (inactive)	8.24 µM (inactive)	3.83 µM (inactive)	22.7 µM (inactive)	7.16	28.7 µM (inactive)	3.23 µM (inactive)	10 µM (inactive)	7.46 µM (inactive)	9.66 µM (inactive)	4.98 µM (inactive)	2.29 µM (inactive)	3.24 µM (inactive)
COc1ccc(-c2csc3c2-n2cccc2C3=O)cc1	0.0135 µM (active)	0.0416 µM (active)	0.0206 µM (active)	< 0.0176 µM (active)	0.0401 µM (active)	0.0656 µM (active)	< 0.0204 µM (active)	0.303 µM (active)	0.366 µM (active)	0.0653	< 0.0375 µM (active)	0.0444 µM (active)	0.0867 µM (active)	4.46 µM (inactive)	0.11 µM (active)	0.805 µM (active)	0.11 µM (active)	< 0.0285 µM (active)
